The values that follow come from publication PMC10622577, “Structural basis for stabilisation of the RAD51 nucleoprotein filament by BRCA2” (Nature Communications, 2023).

In experiment [1] the target is RAD51. Put plainly: SPR Kd estimation of TR2 for wild-type and mutant RAD51. It counts as binding, human. The note with it: no binding saturation, large confidence intervals, statistically unreliable, no numbers given. How it is done: (§1) All binding experiments were performed in CMA buffer: 25 mM HEPES pH 7.4, 100 mM NaCl, 2 mM DTT, 2 mM ATP, 5 mM CaCl2, 5 mM MgCl2. 1 μM RAD51 (wild-type, D184A or D184A, D187A mutant proteins) was injected for 120 seconds followed by buffer for 120 seconds at a flow rate of 10 μl/min. TR2 or BRC4 peptides were then injected in a concentration titration series of 0.1, 0.25, 0.5, 0.75, 1, 2, 3, 5, 7.5, 10 and 15 μM for 120 seconds at a flow rate of […] followed by a dissociation time of 240 seconds. After each injection of BRCA2 peptide, the sensor chip was regenerated with buffer comprising of CMA buffer with 1 M NaCl for 120 seconds at a flow rate of 100 μl/min. All experiments were performed in triplicate.
(§2) For the BRCA2 TR2 titration series, blank-subtracted sensorgrams were used to extract the maximum response accumulated after each TR2 injection. TR2 response accumulation was corrected to account for differences in RAD51 filament formation between runs, by multiplying the maximum response by a scale factor calculated as the ratio between mean RAD51 filament accumulation on each DNA substrate and the mean RAD51 accumulated for each mutant for each triplicate. […]
(§3) consequently the need to inject the TR2 peptide at high concentrations (>30 uM), which would change sample viscosity and affect the refractive index for detection. The Kd values that we obtained based on the measured […]

For experiment [2], the target named is T1, RAD51 (Homo sapiens, UniProt Q06609).
T1 construct: made in house; host or cells: E. coli BL21(DE3)Rosetta2
T1 sequence (Q06609 2-339): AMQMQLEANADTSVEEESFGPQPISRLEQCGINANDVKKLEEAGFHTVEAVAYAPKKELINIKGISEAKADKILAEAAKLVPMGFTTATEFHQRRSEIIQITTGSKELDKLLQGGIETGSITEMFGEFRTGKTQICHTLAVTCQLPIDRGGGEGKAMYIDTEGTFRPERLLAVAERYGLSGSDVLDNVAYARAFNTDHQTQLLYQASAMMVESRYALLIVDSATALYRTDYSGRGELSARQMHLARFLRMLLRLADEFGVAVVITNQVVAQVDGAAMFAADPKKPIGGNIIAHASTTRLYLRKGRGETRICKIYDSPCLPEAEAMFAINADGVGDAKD
Described as above. It counts as binding. The note with it: saturation not achieved, would need >30 uM TR2. How it is done: as §1, §2, §3

For “DDQKNCKKRRALDFLSRLPLPPPVSPICTFVSPAAQKAFQPPRSCGTKY [TR2, BRCA2 TR2 peptide spanning amino acids 3260 to 3308]”, the “Kd trend, wild-type versus mutant RAD51” value in experiment [1] is reported as “KdwtRAD51 < KdmutRAD51”. The “affinity of TR2 for RAD51” value in experiment [2] is reported as “relatively low affinity”.
